According to patent US7078400B2, “20-HETE synthase inhibitor” (Taisho Pharmaceutical Co., Ltd., priority 1999, dated 2006):

Legend:
[1] = system: 20-HETE synthase originated from rat kidney microsome; experiment: Inhibitory effect of 20-HETE synthase originated from rat kidney microsome; type: biochemical; conditions: for Inhibition rate (1 μM): 20-HETE production without compound set to 100%
How it was run: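 Kidney microsomes from 6-week male spontaneously hypertensive rats were used with tritium-arachidonic acid and NADPH. 20-HETE was quantified by radio-HPLC on a C18 column.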

[2] = 1 μM of the subject compound added, rat kidney microsome
[3] = concentration at which production of 20-HETE was inhibited to 50%, rat kidney microsome
[4] = 1 μM of subject compound, rat kidney microsome
[5] = concentration at which 20-HETE production was inhibited to 50%, rat kidney microsome
[6] = concentration at which production of 20-HETE was inhibited to 50%

Row | Structure (SMILES) | IC50 [1, 3] [nM] | melting point | IC50 [1, 5] [nM] | IC50 [1, 6] [nM] | Inhibition rate (1 μM) [1, 2] | Inhibition rate (1 μM) [1, 4] | Inhibition rate (1 μM) ([1]; 1 μM of the subject compound)
1 | O/N=C/Nc1cccc(Oc2ccccc2)c1 [Comp. 124] | 354 | 100 to 102 °C | – | – | 92.2 | – | –
2 | O/N=C/Nc1ccc(Cl)cc1 [Comp. 15] | 288 | 155.5 to 156 °C | – | – | 92.9 | – | –
3 | CCC(C)c1ccccc1N/C=N/O (stereo not shown) [Comp. 42] | – | 144 to 145 °C | – | – | 99.9 | – | –
4 | O/N=C/Nc1ccc2c(c1)CCC2 [Comp. 238] | – | 142.5 to 144 °C | 30 | – | – | 101.6 | –
5 | O=[N+]([O-])c1cc(F)ccc1N/C=N/O [Comp. 126] | – | 172.5 to 173 °C (dec.) | – | – | 34.9 | – | –
6 | O/N=C/Nc1cccc(Cl)c1 [Comp. 23] | 476 | 110 to 111.5 °C | – | – | 82.8 | – | –
7 | CC(=O)OCC(COc1ccc(N/C=N/O)cc1)OC(C)=O (stereo not shown) [Comp. 435] | – | 133 to 134.5 °C | – | 2.2 | – | – | –
8 | O/N=C/Nc1ccc(Cl)c(Cl)c1 [Comp. 24] | 520 | 119 to 120.5 °C | – | – | 89.2 | – | –
9 | O/N=C/Nc1ccc(Br)cc1 [Comp. 36] | 136 | 163 to 164 °C | – | – | 98.3 | – | –
10 | O/N=C/Nc1cccc(Br)c1 [Comp. 82] | – | 133.5 to 134.5 °C | – | – | 70.9 | – | –
11 | CN(C)CCOCCOc1ccc(N/C=N/O)cc1 [Comp. 404] | – | 57.5 to 59 °C | – | 116 | – | – | 114.9
12 | CC(C)c1ccc(N/C=N/O)c(Br)c1 [Comp. 58] | 7.1 | 146.5 to 148 °C | – | – | 99.9 | – | –
13 | CC(C)Sc1ccc(N/C=N/O)cc1 [Comp. 439] | – | 144.1 to 144.2 °C | – | 2.9 | – | – | 92.3
14 | OCCSc1ccc(N/C=N/O)cc1 [Comp. 444] | – | 121 °C | – | 12.1 | – | – | 100.7
15 | O/N=C/Nc1ccc(N2CCOCC2)cc1 [Comp. 300] | – | 182 to 182.5 °C | 5.7 | – | – | 96.3 | –
16 | CCCCCCCc1ccc(N/C=N/O)cc1 [Comp. 28] | 4.7 | 119 to 120.5 °C | – | – | 92.5 | – | –
17 | CC(C)(C)Sc1ccc(N/C=N/O)cc1 [Comp. 456] | – | 143 to 145 °C | – | 6.3 | – | – | 94.4
18 | CN1CCCC1CCOc1ccc(N/C=N/O)cc1 (stereo not shown) [Comp. 416] | – | 99.5 to 102.5 °C | – | 16.3 | – | – | 85.8
19 | O/N=C/Nc1ccc(OCCCN2CCCCC2)cc1 [Comp. 428] | – | 143.5 to 144.5 °C | – | 51.5 | – | – | –
20 | Cc1ccc(N/C=N/O)cc1I [Comp. 55] | – | 130.5 to 132 °C | – | – | 31.3 | – | –
21 | COc1ccc(C(C)(C)C)cc1N/C=N/O [Comp. 6] | – | 119.5 to 120.5 °C | – | – | 99.9 | – | –
22 | CC(C)c1ccccc1N/C=N/O [Comp. 32] | – | 114 to 115 °C | – | – | 87.2 | – | –
23 | O/N=C/Nc1ccccc1-c1ccccc1 [Comp. 234] | – | 111 to 113 °C | – | – | – | 74.1 | –

Second part, led by results:

Row | IC50 [1, 3] [nM] | melting point | IC50 [1, 5] [nM] | IC50 [1, 6] [nM] | Structure (SMILES) | Inhibition rate (1 μM) [1, 2] | Inhibition rate (1 μM) [1, 4] | Inhibition rate (1 μM) ([1]; 1 μM of the subject compound)
24 | 26 | 144 to 145.5 °C | – | – | O/N=C/Nc1ccc(Oc2ccccc2)cc1 [Comp. 131] | 89.2 | – | –
25 | – | 143.5 to 145 °C | 1.4 | – | O/N=C/Nc1ccc(OCCCOc2ccccc2)cc1 [Comp. 365] | – | 105 | –
26 | – | 139 to 141 °C | 39.7 | – | C#CCOc1ccc(N/C=N/O)cc1 [Comp. 227] | – | 117.8 | –
27 | – | > 300 °C | – | 3.2 | O=C([O-])CCCCOc1ccc(N/C=N/O)cc1.[Na+] [Comp. 434] | – | – | –
28 | – | 169.5 to 170 °C | 2.1 | – | C/C=C/C=C/COc1ccc(N/C=N/O)cc1 [Comp. 332] | – | 110.6 | –
29 | – | 188 to 189 °C | 1.2 | – | O/N=C/Nc1ccc(OCCCc2ccncc2)cc1 [Comp. 366] | – | 105 | –
30 | 1420 | 139.5 to 140.5 °C | – | – | O/N=C/Nc1ccc(F)cc1 [Comp. 12] | 77.1 | – | –
31 | – | 144 to 145 °C | 3.9 | – | COc1cccc(COc2ccc(N/C=N/O)cc2)c1OC [Comp. 394] | – | 119.9 | –
32 | – | 166.5 to 167 °C | 3.3 | – | O/N=C/Nc1ccc(OCc2ccccc2)cc1 [Comp. 343] | – | 84.5 | –
33 | – | 130 to 130.5 °C | – | 1.5 | O/N=C/Nc1ccc(OCCCn2cccc2)cc1 [Comp. 412] | – | – | 119.4
34 | – | 145 to 146 °C | – | 6.7 | O/N=C/Nc1ccc(OCC2CCO2)cc1 (stereo not shown) [Comp. 409] | – | – | 113.2
35 | – | 123 to 125 °C | 2.6 | – | CC(C)(C)CCOc1ccc(N/C=N/O)cc1 [Comp. 325] | – | 106 | –
36 | – | 166 °C | – | – | O/N=C/Nc1ccc(SCc2ccccc2)cc1 [Comp. 441, N-[4-(benzylthio)phenyl]-N′-hydroxyformamidine] | – | – | 94.2
37 | 228 | 149 to 150 °C | – | – | CCOc1ccc(N/C=N/O)cc1 [Comp. 20] | 97.5 | – | –
38 | – | 165.5 to 166 °C | 2.5 | – | O/N=C/Nc1ccc(OCc2ccoc2)cc1 [Comp. 368] | – | 96 | –
39 | – | 101.5 to 102 °C | – | 28.5 | CN(C)CC(C)(C)COc1ccc(N/C=N/O)cc1 [Comp. 403] | – | – | 118.3
40 | – | 158 to 160 °C | 3.7 | – | Cc1ncsc1CCOc1ccc(N/C=N/O)cc1 [Comp. 353] | – | 105 | –
41 | – | 152.5 to 153 °C | 1.6 | – | O/N=C/Nc1ccc(OCCCc2ccccc2)cc1 [Comp. 349] | – | 100 | –
42 | – | 132 to 134 °C | – | 1.5 | O/N=C/Nc1ccc(OCCc2cccs2)cc1 [Comp. 422] | – | – | 121.6
43 | – | 165.5 to 166 °C | 2.4 | – | O/N=C/Nc1ccc(OCc2ccc(F)cc2)cc1 [Comp. 392] | – | 109.6 | –
